In patent publication US8614195B2, “Glycoside derivatives and uses thereof” (Novartis AG, priority 2011, dated 2013):

What was measured:
[1] = biological target: human sodium glucose co-transporter 2 (SGLT2) (Homo sapiens (Human), UniProt P31639); test: SGLT-2 assay: 14C-AMG uptake in CHO-hSGLT2 or HEK-hSGLT2 cells; format: cell-based; details: n = 1-4
Description: These cell lines transport ^14C-labelled alpha-methyl-glucopyranoside (^14C-AMG, Amersham) into the interior of the cell in sodium-dependent manner.
(§1) The SGLT-2 assay is carried out as follows: CHO-hSGLT2 cells are cultivated in Ham's F12 Medium (BioWhittaker) with 10% foetal calf serum and 250 μg/mL zeocin (Invitrogen), and HEK293-hSGLT2 cells are cultivated in DMEM medium with 10% foetal calf serum and 250 μg/mL zeocin (Invitrogen). The cells are detached from the culture flasks by washing twice with PBS and subsequently treating with trypsin/EDTA. After the addition of cell culture medium the cells are centrifuged, resuspended in culture medium and counted in a Casy cell counter. Then 40,000 cells per well are seeded into a white, 96-well plate coated with poly-D-lysine and incubated overnight at 37° C., 5% CO2. The cells are washed twice with 250 μl of assay buffer (Hanks Balanced Salt Solution, 137 mM NaCl, 5.4 mM KCl, 2.8 mM CaCl2, 1.2 mM MgSO4 and 10 mM HEPES (pH 7.4), 50 μg/mL of gentamycin). 250 μl of assay buffer and 5 μl of test compound are then added to each well and the plate is incubated for a further 15 minutes in the incubator. 5 μl of 10% DMSO are used as the negative control. The reaction is started by adding 5 μl of 14 C— AMG (0.05 μCi) to each well. After 2 hours' incubation at 37° C., 5% CO2, the cells are washed again with 250 μl of PBS […] and then lysed by the addition of 25 μl of 0.1 N NaOH (5 min. at 37° C.). 200 μl of MicroScint20 (Packard) are added to each well and incubation is continued for a further 20 min at 37° C. After this incubation the radioactivity of the ^14C-AMG absorbed is measured in a Topcount (Packard) using a ^14C scintillation program.

[2] = biological target: human SGLT1 (Homo sapiens (Human), UniProt P13866); test: SGLT1 assay: analogous 14C-AMG uptake test with hSGLT1 expressed in CHO-K1 or HEK293 cells; format: cell-based; details: n = 1-4
Description: as §1
To determine the selectivity with respect to human SGLT1 an analogous test is set up in which the cDNA for hSGLTI (Genbank Ace. No. NM000343) instead of hSGLT2 cDNA is expressed in CHO-K1 or HEK293 cells.
The title compounds of the Examples were evaluated in the above described assays and the results of which are collated in Table 1.

[3] = title compounds of the Examples (prodrugs)

Sequence of human SGLT1 (P13866 whole entry): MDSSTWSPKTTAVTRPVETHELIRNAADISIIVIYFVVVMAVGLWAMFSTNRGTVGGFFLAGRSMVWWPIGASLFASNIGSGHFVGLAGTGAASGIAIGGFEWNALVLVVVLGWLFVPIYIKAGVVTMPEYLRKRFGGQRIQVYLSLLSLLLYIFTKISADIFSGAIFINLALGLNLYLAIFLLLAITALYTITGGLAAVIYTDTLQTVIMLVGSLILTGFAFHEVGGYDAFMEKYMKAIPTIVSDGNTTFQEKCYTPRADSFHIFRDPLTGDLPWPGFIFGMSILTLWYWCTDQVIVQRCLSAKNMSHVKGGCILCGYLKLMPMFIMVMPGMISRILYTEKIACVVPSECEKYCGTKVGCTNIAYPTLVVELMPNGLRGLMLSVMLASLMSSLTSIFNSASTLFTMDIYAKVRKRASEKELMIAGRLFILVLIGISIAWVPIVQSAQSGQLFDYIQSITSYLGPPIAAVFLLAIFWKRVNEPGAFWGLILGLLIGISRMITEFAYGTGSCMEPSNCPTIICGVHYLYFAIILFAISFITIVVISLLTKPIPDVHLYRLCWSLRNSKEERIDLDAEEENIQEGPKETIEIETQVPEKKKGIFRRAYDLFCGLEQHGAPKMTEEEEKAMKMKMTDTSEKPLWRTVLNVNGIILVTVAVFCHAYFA
Sequence of human sodium glucose co-transporter 2 (SGLT2) (P31639 whole entry): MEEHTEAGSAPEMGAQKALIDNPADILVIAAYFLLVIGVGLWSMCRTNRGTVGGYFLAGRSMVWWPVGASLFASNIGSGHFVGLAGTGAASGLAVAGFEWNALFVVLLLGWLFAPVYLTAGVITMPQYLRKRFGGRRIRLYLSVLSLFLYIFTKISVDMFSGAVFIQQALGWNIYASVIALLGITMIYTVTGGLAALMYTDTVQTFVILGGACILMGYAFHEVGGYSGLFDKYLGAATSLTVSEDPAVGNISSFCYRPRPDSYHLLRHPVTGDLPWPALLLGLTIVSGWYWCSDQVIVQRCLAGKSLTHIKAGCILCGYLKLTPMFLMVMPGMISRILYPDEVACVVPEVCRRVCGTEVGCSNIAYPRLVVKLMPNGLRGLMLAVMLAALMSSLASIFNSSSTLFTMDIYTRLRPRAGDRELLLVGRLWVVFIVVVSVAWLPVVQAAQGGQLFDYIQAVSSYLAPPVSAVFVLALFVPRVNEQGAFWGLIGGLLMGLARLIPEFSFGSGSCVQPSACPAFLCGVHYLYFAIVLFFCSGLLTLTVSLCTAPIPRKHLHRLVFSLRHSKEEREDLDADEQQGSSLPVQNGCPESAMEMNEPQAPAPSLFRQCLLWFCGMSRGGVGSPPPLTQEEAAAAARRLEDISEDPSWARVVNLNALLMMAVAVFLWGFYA

SMILES	IC50 ([1]; parent compound of the prodrugs) [nM]	IC50 [2] [nM]	IC50 [1, 3] [nM]	IC50 [2, 3] [nM]
OC[C@H]1O[C@@H](c2ccc(C3CC3)c(Cc3ccc4c(c3)OCCO4)c2)[C@H](O)[C@@H](O)[C@@H]1O [(2S,3R,4R,5S,6R)-2-[4-Cyclopropyl-3-(2,3-dihydro-benzo[1,4]dioxin-6-ylmethyl)-phenyl]-6-hydroxymethyl-tetrahydro-pyran-3,4,5-triol]	2.2	9		
CCc1ccc([C@@H]2O[C@H](COC(=O)[C@H](N)C(C)C)[C@@H](O)[C@H](O)[C@H]2O)cc1Cc1ccc2c(c1)OCCO2 [Example 1, (R)-2-Amino-3-methyl-butyric acid (2R,3S,4R,5R,6S)-6-[3-(2,3-dihydro-benzo[1,4]dioxin-6-ylmethyl)-4-ethyl-phenyl]-3,4,5-trihydroxy-tetrahydro-pyran-2-ylmethyl ester]			22.5	409
COC(=O)OC[C@H]1O[C@@H](c2ccc(C3CC3)c(Cc3ccc4c(c3)OCCO4)c2)[C@H](O)[C@@H](O)[C@@H]1O [Example 2, carbonic acid (2R,3S,4R,5R,6S)-6-[4-cyclopropyl-3-(2,3-dihydro-benzo[1,4]dioxin-6-ylmethyl)-phenyl]-3,4,5-trihydroxy-tetrahydro-pyran-2-ylmethyl ester methyl ester]			17.5	35
CCOP(=O)(OCC)OC[C@H]1O[C@@H](c2ccc(C3CC3)c(Cc3ccc4c(c3)OCCO4)c2)[C@H](O)[C@@H](O)[C@@H]1O [Example 3a, Phosphoric acid (2R,3S,4R,5R,6S)-6-[4-cyclopropyl-3-(2,3-dihydro-benzo[1,4]dioxin-6-ylmethyl)-phenyl]-3,4,5-trihydroxy-tetrahydro-pyran-2-yl methyl ester diethyl ester]			> 1000	5650
CCc1ccc([C@@H]2O[C@H](COC(=O)OCC3CC4CCC3C4)[C@@H](O)[C@H](O)[C@H]2O)cc1Cc1ccc2c(c1)OCCO2 (stereo partly drawn) [Example 2f, Carbonic acid bicyclo[2.2.1]hept-2-ylmethyl ester (2R,3S,4R,5R,6S)-6-[3-(2,3-dihydro-benzo[1,4]dioxin-6-ylmethyl)-4-ethyl-phenyl]-3,4,5-trihydroxy-tetrahydro-pyran-2-ylmethyl ester]			143	3440
CCOC(=O)OC[C@H]1O[C@@H](c2ccc(C3CC3)c(Cc3ccc4c(c3)OCCO4)c2)[C@H](O)[C@@H](O)[C@@H]1O [Example 2a, Carbonic acid (2R,3S,4R,5R,6S)-6-[4-cyclopropyl-3-(2,3-dihydro-benzo[1,4]dioxin-6-ylmethyl)-phenyl]-3,4,5-trihydroxy-tetrahydro-pyran-2-ylmethyl ester ethyl ester]			97	308
CC(C)COC(=O)OC[C@H]1O[C@@H](c2ccc(C3CC3)c(Cc3ccc4c(c3)OCCO4)c2)[C@H](O)[C@@H](O)[C@@H]1O [Example 2b, Carbonic acid (2R,3S,4R,5R,6S)-6-[4-cyclopropyl-3-(2,3-dihydro-benzo[1,4]dioxin-6-ylmethyl)-phenyl]-3,4,5-trihydroxy-tetrahydro-pyran-2-ylmethyl ester isobutyl ester]			186	338
CCc1ccc([C@@H]2O[C@H](COC(=O)O[C@@H](C)c3ccccc3)[C@@H](O)[C@H](O)[C@H]2O)cc1Cc1ccc2c(c1)OCCO2 [Example 2g, Carbonic acid (2R,3S,4R,5R,6S)-6-[3-(2,3-dihydro-benzo[1,4]dioxin-6-ylmethyl)-4-ethyl-phenyl]-3,4,5-trihydroxy-tetrahydro-pyran-2-ylmethyl ester (S)-1-phenyl-ethyl ester]			567	1000
CCOP(=O)(OCC)OC[C@H]1O[C@@H](c2ccc(CC)c(Cc3ccc4c(c3)OCCO4)c2)[C@H](O)[C@@H](O)[C@@H]1O [Example 3, phosphoric acid (2R,3S,4R,5R,6S)-6-[3-(2,3-dihydro-benzo[1,4]dioxin-6-ylmethyl)-4-ethyl-phenyl]-3,4,5-trihydroxy-tetrahydro-pyran-2-ylmethyl ester diethyl ester]			> 1000	814
CCOC(=O)OC[C@H]1O[C@@H](c2ccc(CC)c(Cc3ccc4c(c3)OCCO4)c2)[C@H](O)[C@@H](O)[C@@H]1O [Example 2c, Carbonic acid (2R,3S,4R,5R,6S)-6-[3-(2,3-dihydro-benzo[1,4]dioxin-6-ylmethyl)-4-ethyl-phenyl]-3,4,5-trihydroxy-tetrahydro-pyran-2-ylmethyl ester ethyl ester]			27	197
CCc1ccc([C@@H]2O[C@H](CO)[C@@H](O)[C@H](O)[C@H]2O)cc1Cc1ccc2c(c1)OCCO2 [(2S,3R,4R,5S,6R)-2-[3-(2,3-Dihydro-benzo[1,4]dioxin-6-ylmethyl)-4-ethyl-phenyl]-6-hydroxymethyl-tetrahydro-pyran-3,4,5-triol]		22		
